Results: BindingDB's records for doi:10.1021/jm970397q (Merck Research Laboratories, 1997)
Structures can show the parent of a compound that is named as a salt.

molecular target: Prothrombin (Homo sapiens, UniProt P00734); assay: Inhibition of Thrombin; conditions: read-out: kon (M-1-s-1)

Compound | kon [M⁻¹ s⁻¹]
NC1CCC(CNC(=O)[C@@H]2CCCN2C(=O)CC(c2ccccc2)c2ccccc2)CC1 (stereo partly drawn) [(S)-1-(3,3-Diphenyl-propionyl)-pyrrolidine-2-carboxylic acid (4-amino-cyclohexylmethyl)-amide; TFA] | 2.1e+08
NC1CCC(CNC(=O)[C@@H]2CCCN2C(=O)CC(c2ccccc2)c2ccncc2)CC1 (stereo partly drawn) [(S)-1-(3-Phenyl-3-pyridin-4-yl-propionyl)-pyrrolidine-2-carboxylic acid (4-amino-cyclohexylmethyl)-amide; TFA] | 1.55e+08
NC1CCC(CNC(=O)[C@@H]2CCCN2C(=O)CC(c2ccccc2)c2cccnc2)CC1 (stereo partly drawn) [(S)-1-(3-Phenyl-3-pyridin-3-yl-propionyl)-pyrrolidine-2-carboxylic acid (4-amino-cyclohexylmethyl)-amide; TFA] | 2.1e+08
NC1CCC(CNC(=O)[C@@H]2CCCN2C(=O)CC2c3ccccc3C=Cc3ccccc32)CC1 (stereo partly drawn) [(S)-1-(2-5H-Dibenzo[a,d]cyclohepten-5-yl-acetyl)-pyrrolidine-2-carboxylic acid (4-amino-cyclohexylmethyl)-amide; hydrochloride] | 1.8e+08
NC1CCC(CNC(=O)[C@@H]2CCCN2C(=O)CC(C2CCCCC2)C2CCCCC2)CC1 (stereo partly drawn) [(S)-1-(3,3-Dicyclohexyl-propionyl)-pyrrolidine-2-carboxylic acid (4-amino-cyclohexylmethyl)-amide; hydrochloride] | 2.3e+08
NC1CCC(CNC(=O)[C@@H]2CCCN2C(=O)CC(c2cccnc2)c2ccc3c(c2)OCO3)CC1 (stereo partly drawn) [(S)-1-(3-Benzo[1,3]dioxol-5-yl-3-pyridin-3-yl-propionyl)-pyrrolidine-2-carboxylic acid (4-amino-cyclohexylmethyl)-amide; TFA] | 2.51e+08
NC1CCC(CNC(=O)[C@@H]2CCCN2C(=O)CC(c2ccccc2)c2ccccn2)CC1 (stereo partly drawn) [(S)-1-(3-Phenyl-3-pyridin-2-yl-propionyl)-pyrrolidine-2-carboxylic acid (4-amino-cyclohexylmethyl)-amide; TFA] | 1.8e+08
